Experimental data reported in PMC6521623, “DIRAS3-Derived Peptide Inhibits Autophagy in Ovarian Cancer Cells by Binding to Beclin1” (Cancers, 2019).
Values belong to the molecule of their own block, whether it stands above or below them. Ends that are not written are not given here.

Key:
full-length Beclin1 = molecular target: T1, full-length Beclin1 (Homo sapiens, UniProt Q14457); experiment: SPR affinity of biotinylated D3S2 peptide for Beclin1; type: binding; settings: SPR Biacore 3000, 25 °C, c-terminal biotinylated D3S2 on SA chip, Beclin1 10 to 270 nM, Langmuir 1:1 fit, unit inferred
T1 construct: His tag (pQTEV vector, TEV site) (cleaved yes); made in house; host or cells: Escherichia coli BL21 (DE3), by analogy with the DIRAS2/3 chimera
Description: A DIRAS2/3 chimera construct was generated by replacing the amino acid residues 92–108 of DIRAS3 with 62–78 amino acid residues of DIRAS2. The DIRAS2/3 chimera construct was cloned into pQTEV vector using ligation-independent cloning and transformed into BL21 (DE3) Escherichia coli cells. Cells carrying the DIRAS2/3 chimera constructs were grown at 37 °C until the OD at 600 nm (OD600) reached to 0.6 and protein expression was induced with 0.5 mM isopropyl β-D-1-thiogalactopyranoside. Cultures were grown for an additional 12 h at 18 °C and harvested by centrifugation. Cells were resuspended in lysis buffer containing 50 mM Tris (pH 7.5), 150 mM sodium chloride, 10 mM magnesium chloride, 10 mM Imidazole, 5% glycerol and 1 mM β-mercaptoethanol and lysed using a cell disrupter (Constant Systems, Northamptonshire, UK). The lysate was cleared by centrifugation at 35,000 × g for 2 h at 4 °C. Cleared lysate was passed through a 0.22-μm filter. […]
SPR experiments were performed using a Biacore 3000 optical biosensor (GE Healthcare/Biacore AB) at 25 °C. […] Reference and buffer corrected SPR response was collected and the data was analyzed using Biacore evaluation software. The kinetic parameters and KD value were determined by fitting the sensorgram to a Langmuir 1:1 binding model (BIAevaluation version 4.1.1, GE Healthcare/Biacore AB, Marlborough, MA, USA).

[1] = molecular target: T2, Beclin1 recombinant protein (UniProt Q14457 1-450); experiment: peptide or protein array; 15mer peptide array of DIRAS3 residues 1-229 on membrane, overlaid with recombinant Beclin1 at 1 µg/mL in 1% BSA/PBS, 2 h at room temperature; detected with primary and secondary antibody, HRP; settings: both partners purified
T2 construct: Beclin1 (BECN1); called full-length Beclin1 in the SPR experiment; The construct is not described beyond 'produced in a similar fashion'; For the chimera the His tag was cleaved with TEV protease; whether this also holds for Beclin1 is surmised; also called BECN1; full-length Beclin1; source: recombinant
T2 sequence (Q14457 whole entry, the tested form may be a part): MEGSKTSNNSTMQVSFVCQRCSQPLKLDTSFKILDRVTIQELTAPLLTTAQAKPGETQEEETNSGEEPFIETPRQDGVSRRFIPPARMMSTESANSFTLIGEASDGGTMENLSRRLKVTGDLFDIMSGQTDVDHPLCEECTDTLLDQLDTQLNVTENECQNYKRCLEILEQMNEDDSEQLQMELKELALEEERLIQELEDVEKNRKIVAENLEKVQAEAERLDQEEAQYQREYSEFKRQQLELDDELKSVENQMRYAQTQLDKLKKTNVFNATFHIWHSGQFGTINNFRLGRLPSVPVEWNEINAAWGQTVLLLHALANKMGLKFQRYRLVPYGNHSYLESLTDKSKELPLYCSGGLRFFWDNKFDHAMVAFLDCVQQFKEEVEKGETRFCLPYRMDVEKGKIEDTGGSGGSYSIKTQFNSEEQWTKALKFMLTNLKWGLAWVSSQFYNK

T1 sequence (Q14457 whole entry): as the sequence (Q14457 whole entry, the tested form may be a part) above

kon (full-length Beclin1; read-out: association rate constant (ka)): 62200 M⁻¹ s⁻¹
koff (full-length Beclin1; read-out: dissociation rate constant (kd)): 0.000125 s⁻¹
Molecule: SKSGDGNRALQRHVIAR [D3S2]

binding result [1]: binds
B1: DIRAS3 N-terminus peptides on the DIRAS3 peptide array (residues 15-33) (peptide, UniProt O95661 15-33, looked up)
peptide: KRLRLLPALLILRAFKPHR
notes: DIRAS3, residues 15-33 (N-terminus), a stretch covered by overlapping 15mer peptides of an array covering residues 1-229; The stretch is longer than one 15mer, so several overlapping array spots are meant; also called N-terminus of DIRAS3 (residues 15-33); source: synthetic peptide, SPOT synthesis on membrane (MultiPep RS robot)

binding result [1]: binds
B2: DIRAS3 switch II region peptide on the DIRAS3 peptide array (residues 93-107) (peptide, UniProt O95661 93-107, looked up)
peptide: KSGDGNRALQRHVIA
notes: source: synthetic peptide, SPOT synthesis on membrane (MultiPep RS robot)
